These results are taken from US9751837B2, “Kinase inhibitors” (RESPIVERT LIMITED, priority 2014, dated 2017).

This data set is described as follows: Solubility in fasted-state simulated colonic fluid (FaSSCoF) at pH 6.5. The data set is classed as physicochemical. As to conditions: for solubility thermodynamic at 24 h: 25 °C, pH 6.5, fassgf or other biorelevant, thermodynamic from solid. On the procedure: The solubilities of compounds of the invention in FaSSCoF at pH 6.5 are determined using a modification of a previously-reported procedure (Vertzoni, M., et al. Pharm. Res. 2010, 27, 2187-2196). In place of the bile salt extract employed in the original procedure (which extract is no longer available), the modified procedure uses a mixture of sodium taurochlorate (0.15 g), glycocholic acid (0.15 g), ursodeoxycholic acid (0.05 g), cholic acid (0.05 g), and glycodeoxycholic acid (0.05 g). These five bile acids are ground together with a mortar and pestle to produce a fine white powder that is incorporated into the FaSSCoF, as outlined below.
Tris(hydroxymethyl)aminomethane (Tris; 0.275 g) and maleic acid (0.44 g) are dissolved in water (35 mL) to give a solution whose pH is adjusted to 6.5 by treatment with 0.5M NaOH (ca. 12 mL). The solution is then made up to 50 mL with water. A portion of this Tris/maleate buffer solution (ca. 25 mL) is added to a 0.5 L round-bottomed flask, before being treated with 0.00565 g of the bile acid mixture described above. Solutions of phosphatidylcholine (0.0111 g) in DCM (0.15 mL) and palmitic acid (0.0013 g) in DCM (0.15 mL) are added, then the organic solvent is evaporated off under reduced pressure at 40° C. until a clear solution, with no perceptible DCM odour, is achieved. The volume of the evaporated solution is adjusted to 50 mL by addition of the remainder of Tris/maleate buffer, then BSA (0.115 g) is added, before being dissolved by gentle agitation.
Test compounds are suspended in the pH 6.5 FaSSCoF medium to give a maximum final concentration of 2-10 mg/mL. The suspensions are equilibrated at 25° C. for 24 h, before being filtered through a glass fibre C filter. The filtrates are then diluted as appropriate for injection and quantification by HPLC with reference to a standard. Different volumes of the standard, diluted and undiluted sample solutions are injected and the solubilities are calculated using the peak areas determined by integration of the peak found at the same retention time as the principal peak in the standard injection.

[1] abbreviates: pH 6.5 FaSSCoF Solubility (mg/mL) Run 1.
Where [2] appears, read: pH 6.5 FaSSCoF Solubility (mg/mL) Run 2.

In brackets after ≈: the same amount, converted by molar mass. Counter-ions that a name gives are not always drawn. Like-named read-outs stand apart in the source and are kept apart here.

With `COc1cc(Nc2cc(Oc3ccc(NC(=O)Nc4cc(C(C)(C)C)cc(NS(C)(=O)=O)c4OC)c4ccccc34)ccn2)cc(OC)c1C(=O)NCC(CO)(CO)CO` [17(cn), 4-((4-((4-(3-(5-(tert-Butyl)-2-methoxy-3-(methylsulfonamido)phenyl)ureido)naphthalen-1-yl)oxy)pyridin-2-yl)amino)-N-(3-hydroxy-2,2-bis(hydroxymethyl)propyl)-2,6-dimethoxybenzamide], the solubility thermodynamic at 24 h was 0.025 mg/mL (≈ 29.5 µM) under setting [1] and 0.017 mg/mL (≈ 20.1 µM) under setting [2].

`COc1cc(Nc2cc(Oc3ccc(NC(=O)Nc4cc(C(C)(C)C)cc(NS(C)(=O)=O)c4OC)c4ccccc34)ccn2)ccc1C(=O)NC[C@@H]1O[C@H](CO)[C@@H](O)[C@H](O)[C@H]1O` [17(co), 4-((4-((4-(3-(5-(tert-Butyl)-2-methoxy-3-(methylsulfonamido)phenyl)ureido)naphthalen-1-yl)oxy)pyridin-2-yl)amino)-2-methoxy-N-(((2S,3R,4R,5S,6R)-3,4,5-trihydroxy-6-(hydroxymethyl)tetrahydro-2H-pyran-2-yl)methyl)benzamide]: the solubility thermodynamic at 24 h by setting is: (FaSSCoF pH 6.5, 25° C., 24 h, Run 1, read-out: pH 6.5 FaSSCoF Solubility (mg/mL) Run 1) 0.005 mg/mL (≈ 5.71 µM); (FaSSCoF pH 6.5, 25° C., 24 h, Run 2, read-out: pH 6.5 FaSSCoF Solubility (mg/mL) Run 2) 0.006 mg/mL (≈ 6.86 µM).

On to `COc1cc(Nc2cc(Oc3ccc(NC(=O)Nc4cc(C(C)(C)C)cc(NS(C)(=O)=O)c4OC)c4ccccc34)ccn2)ccc1C(=O)NCCOCCOCCOP(=O)(O)O` [19 (ammonium salt), 2-(2-(2-(4-((4-((4-(3-(5-(tert-Butyl)-2-methoxy-3-(methylsulfonamido)phenyl)ureido)-naphthalen-1-yl)oxy)pyridin-2-yl)amino)-2-methoxybenzamido)ethoxy)ethoxy)ethyl dihydrogen phosphate], for which the solubility thermodynamic at 24 h under setting [1] was 0.946 mg/mL and the solubility thermodynamic at 24 h under setting [2] is 0.881 mg/mL.

In the case of `COc1cc(Nc2cc(Oc3ccc(NC(=O)Nc4cc(C(C)(C)C)cc(NS(C)(=O)=O)c4OC)c4ccccc34)ccn2)ccc1C(=O)NCCOCCOCCOP(=O)(O)O` [19 (sodium salt), 2-(2-(2-(4-((4-((4-(3-(5-(tert-Butyl)-2-methoxy-3-(methylsulfonamido)phenyl)ureido)-naphthalen-1-yl)oxy)pyridin-2-yl)amino)-2-methoxybenzamido)ethoxy)ethoxy)ethyl dihydrogen phosphate], the “pH 6.5 FaSSCoF Solubility (mg/mL) Run 1” value (24 h, pH 6.5) was >4.7 mg/mL.

With `COc1cc(Nc2cc(Oc3ccc(NC(=O)Nc4cc(C(C)(C)C)cc(NS(C)(=O)=O)c4OC)c4ccccc34)ccn2)ccc1C(=O)NCCCCCCC(=O)O` [34 (hydrochloride salt), 7-(4-((4-((4-(3-(5-(tert-Butyl)-2-methoxy-3-(methylsulfonamido)phenyl)ureido)naphthalen-1-yl)oxy)pyridin-2-yl)amino)-2-methoxybenzamido)heptanoic acid, hydrochloride salt], the solubility thermodynamic at 24 h reads like this: under setting [1], 0.001 mg/mL; under setting [2], 0.001 mg/mL.

Take `COc1cc(Nc2cc(Oc3ccc(NC(=O)Nc4cc(C(C)(C)C)cc(NS(C)(=O)=O)c4OC)c4ccccc34)ccn2)ccc1C(=O)NCCOP(=O)(O)O` [35 (sodium salt), 2-(4-((4-((4-(3-(5-(tert-Butyl)-2-methoxy-3-(methylsulfonamido)phenyl)ureido)naphthalen-1-yl)oxy)pyridin-2-yl)amino)-2-methoxybenzamido)ethyl dihydrogen phosphate]: the solubility thermodynamic at 24 h reads like this: under setting [1], > 3.5 mg/mL; under setting [2], > 4.2 mg/mL.

For the molecule `COc1cc(Nc2cc(Oc3ccc(NC(=O)Nc4cc(C(C)(C)C)cc(NS(C)(=O)=O)c4OC)c4ccccc34)ccn2)cc(OC)c1C(=O)NCCOCCOCCOP(=O)(O)O` [47 (sodium salt), 2-(2-(2-(4-((4-((4-(3-(5-(tert-butyl)-2-methoxy-3-(methylsulfonamido)phenyl)ureido)-naphthalen-1-yl)oxy)pyridin-2-yl)amino)-2,6-dimethoxybenzamido)ethoxy)ethoxy)ethyl dihydrogen phosphate], the solubility thermodynamic at 24 h is > 1.9 mg/mL under setting [1] and > 2 mg/mL under setting [2].

Consider `COc1c(NC(=O)Nc2ccc(Oc3ccnc(Nc4ccc(P(C)(=O)O)c(N(C)C)c4)c3)c3ccccc23)cc(C(C)(C)C)cc1NS(C)(=O)=O` [68 (sodium salt)], for which the solubility thermodynamic at 24 h runs as follows: under setting [1], 0.02 mg/mL; under setting [2], 0.02 mg/mL.

Turning to `COc1cc(Nc2cc(Oc3ccc(NC(=O)Nc4cc(C(C)(C)C)cc(NS(C)(=O)=O)c4OC)c4ccccc34)ccn2)ccc1CP(C)(=O)O` [70 (sodium salt)], the solubility thermodynamic at 24 h under setting [1] is > 2.8 mg/mL and the solubility thermodynamic at 24 h under setting [2] was > 2.8 mg/mL.

In the case of `COc1cc(Nc2cc(Oc3ccc(NC(=O)Nc4cc(C(C)(C)C)cc(NS(C)(=O)=O)c4OC)c4ccccc34)ccn2)ccc1S(=O)(=O)CCCN1CCOCC1` [Example 20, N-(5-(tert-Butyl)-2-methoxy-3-(3-(4-((2-((3-methoxy-4-((3-morpholinopropyl)sulfonyl)phenyl)-amino)pyridin-4-yl)oxy)naphthalen-1-yl)ureido)phenyl)methanesulfonamide], under setting [1], the solubility thermodynamic at 24 h is 0.004 mg/mL (≈ 4.72 µM).

In the case of `COc1c(NC(=O)Nc2ccc(Oc3ccnc(Nc4ccc(C(=O)NCCN5CCOCC5)c(N(C)C)c4)c3)c3ccccc23)cc(C(C)(C)C)cc1NS(C)(=O)=O` [Example 21, 4-((4-((4-(3-(5-(tert-Butyl)-2-methoxy-3-(methylsulfonamido)phenyl)ureido)naphthalen-1-yl)oxy)pyridin-2-yl)amino)-2-(dimethylamino)-N-(2-morpholinoethyl)benzamide], the solubility thermodynamic at 24 h reads like this: under setting [1], 0.01 mg/mL (≈ 12.1 µM); under setting [2], 0.01 mg/mL (≈ 12.1 µM).

Take `COc1cc(Nc2cc(Oc3ccc(NC(=O)Nc4cc(C(C)(C)C)cc(NS(C)(=O)=O)c4OC)c4ccccc34)ccn2)cc(OC)c1C(=O)NCCCN1CCOCC1` [Example 23, 4-((4-((4-(3-(5-(tert-Butyl)-2-methoxy-3-(methylsulfonamido)phenyl)ureido)naphthalen-1-yl)oxy)pyridin-2-yl)amino)-2,6-dimethoxy-N-(3-morpholinopropyl)benzamide]: the solubility thermodynamic at 24 h runs as follows: under setting [1], 0.008 mg/mL (≈ 9.35 µM); under setting [2], 0.008 mg/mL (≈ 9.35 µM).

For the molecule `COc1cc(Nc2cc(Oc3ccc(NC(=O)Nc4cc(C(C)(C)C)cc(NS(C)(=O)=O)c4OC)c4ccccc34)ccn2)ccc1C(=O)NCCN1CCN(C2CC2)CC1` [Example 26, 4-((4-((4-(3-(5-(tert-Butyl)-2-methoxy-3-(methylsulfonamido)phenyl)ureido)naphthalen-1-yl)oxy)pyridin-2-yl)amino)-N-(2-(4-cyclopropylpiperazin-1-yl)ethyl)-2-methoxybenzamide], the solubility thermodynamic at 24 h under setting [1] was 0.011 mg/mL (≈ 12.9 µM) and the solubility thermodynamic at 24 h under setting [2] is 0.011 mg/mL (≈ 12.9 µM).

Take `COc1cc(Nc2cc(Oc3ccc(NC(=O)Nc4cc(C(C)(C)C)cc(NS(C)(=O)=O)c4OC)c4ccccc34)ccn2)ccc1C(=O)NCC[N+]1([O-])CCOCC1` [Example 33, 4-(2-(4-((4-((4-(3-(5-(tert-Butyl)-2-methoxy-3-(methylsulfonamido)phenyl)ureido)naphthalen-1-yl)oxy)pyridin-2-yl)amino)-2-methoxybenzamido)ethyl)morpholine 4-oxide]: the solubility thermodynamic at 24 h is, setting by setting: under setting [1], 0.005 mg/mL (≈ 6.04 µM); under setting [2], 0.005 mg/mL (≈ 6.04 µM).

For `COc1cc(Nc2cc(Oc3ccc(NC(=O)Nc4cc(C(C)(C)C)cc(NS(C)(=O)=O)c4OC)c4ccccc34)ccn2)cc(OC)c1C(=O)NCCN1CCN(CCO)CC1` [Example 37, 4-((4-((4-(3-(5-(tert-Butyl)-2-methoxy-3-(methylsulfonamido)phenyl)ureido)naphthalen-1-yl)oxy)pyridin-2-yl)amino)-N-(2-(4-(2-hydroxyethyl)piperazin-1-yl)ethyl)-2,6-dimethoxybenzamide], the solubility thermodynamic at 24 h reads like this: under setting [1], 0.025 mg/mL (≈ 28.2 µM); under setting [2], 0.024 mg/mL (≈ 27.1 µM); (pH 6.5 FaSSCoF Solubility (mg/mL) Run 3) 0.007 mg/mL (≈ 7.91 µM); (pH 6.5 FaSSCoF Solubility (mg/mL) Run 4) 0.006 mg/mL (≈ 6.78 µM).

As for `COc1cc(Nc2cc(Oc3ccc(NC(=O)Nc4cc(C(C)(C)C)cc(NS(C)(=O)=O)c4OC)c4ccccc34)ccn2)ccc1S(=O)(=O)CCOCCOCCO` [Example 40, N-(5-(tert-Butyl)-3-(3-(4-((2-((4-((2-(2-(2-hydroxyethoxy)ethoxy)ethyl)sulfonyl)-3-methoxyphenyl)amino)pyridin-4-yl)oxy)naphthalen-1-yl)ureido)-2-methoxyphenyl)-methanesulfonamide], the solubility thermodynamic at 24 h under setting [1] was 0.005 mg/mL (≈ 5.87 µM) and the solubility thermodynamic at 24 h under setting [2] is 0.005 mg/mL (≈ 5.87 µM).
